“And” between values parts separate entries of the source, which are not always exact repeats. Equal entries are not always repeated. Marks after values point to notes of the source that are not given here. One block for each molecule: values may come before it.
What was measured:
[1] = In vivo biodistribution in mice; design: species or system normal CD-1 male mice; settings: for bone to blood ratio / bone to muscle ratio / Biodistribution: Blood / Biodistribution: Bone / Biodistribution: Brain / Biodistribution: Heart / Biodistribution: Kidney / Biodistribution: Liver / Biodistribution: Lung / Biodistribution: Muscle / Biodistribution: Pancreas / Biodistribution: Skin / Biodistribution: Spleen: iv; for Biodistribution result in words (organ uptake, retention, excretion): normal mice after iv injection
Experimental: Biodistribution experiments were performed by intravenously administering ^68Ga labeled 1a-h, 2, 3, BPAMD, and [^18F]NaF into normal, healthy male CD-1 mice (25-30 g). The injection activity was 20-30 μCi/animal. […] Organs of interest were harvested, weighed, and counts of radioactivity were measured by a gamma counter. The biodistribution of each sample was calculated as a percentage of the injected dose per gram of wet tissue weight (% ID/g). Tibia and femur bones were harvested and counted as bone samples.

[2] = In vitro binding to hydroxyapatite; settings: 20 mg hydroxyapatite in saline, 10 min at room temperature
Experimental: Hydroxyapatite (20 mg, Sigma-Aldrich, reagent grade powder) was incubated in isotonic saline (1 mL) for 24 h. Subsequently, either ^68Ga labeled 1a-h, 2, 3, BPAMD, or [^18F]NaF (1 μCi) was added to the hydroxyapatite suspension. After vortexing for 10 seconds, the suspension was incubated for 10 min at room temperature. The samples were then centrifuged at 10,000 rpm for 3 min and the supernatant was removed. The hydroxyapatite fraction was washed twice with saline (1 mL). Radioactivity in the combined supernatants and the hydroxyapatite fraction was measured using a gamma counter. The proportion of the ^68Ga complex binding to hydroxyapatite was determined as percent of ^68Ga absorbed to hydroxyapatite.

bone to blood ratio ([1]; 30 min): 24 | bone to muscle ratio ([1]; 30 min): 41 | Biodistribution: Blood ([1]; 30 min (0.5 hr) post injection): 0.54 ± 0.11 % dose/g | Biodistribution: Bone ([1]; 30 min (0.5 hr) post injection): 12.4 ± 1.19 % dose/g | Biodistribution: Brain ([1]; 30 min (0.5 hr) post injection): 0.03 ± 0.01 % dose/g | Biodistribution: Heart ([1]; 30 min (0.5 hr) post injection): 0.23 ± 0.05 % dose/g | Biodistribution: Kidney ([1]; 30 min (0.5 hr) post injection): 1.21 ± 0.94 % dose/g | Biodistribution: Liver ([1]; 30 min (0.5 hr) post injection): 0.20 ± 0.03 % dose/g | Biodistribution: Lung ([1]; 30 min (0.5 hr) post injection): 1.35 ± 1.52 % dose/g | Biodistribution: Muscle ([1]; 30 min (0.5 hr) post injection): 0.39 ± 0.24 % dose/g | Biodistribution: Pancreas ([1]; 30 min (0.5 hr) post injection): 0.15 ± 0.03 % dose/g | Biodistribution: Skin ([1]; 30 min (0.5 hr) post injection): 0.41 ± 0.12 % dose/g | Biodistribution: Spleen ([1]; 30 min (0.5 hr) post injection): 0.15 ± 0.04 % dose/g | bone to blood ratio ([1]; 60 min): 97 | bone to muscle ratio ([1]; 60 min): 200 | Biodistribution: Blood ([1]; 60 min (1 hr) post injection): 0.12 ± 0.02 % dose/g | Biodistribution: Brain ([1]; 60 min (1 hr) post injection): 0.01 ± 0.00 % dose/g | Biodistribution: Heart ([1]; 60 min (1 hr) post injection): 0.08 ± 0.02 % dose/g | Biodistribution: Kidney ([1]; 60 min (1 hr) post injection): 1.48 ± 0.60 % dose/g | Biodistribution: Liver ([1]; 60 min (1 hr) post injection): 0.13 ± 0.03 % dose/g | Biodistribution: Lung ([1]; 60 min (1 hr) post injection): 0.20 ± 0.05 % dose/g | Biodistribution: Muscle ([1]; 60 min (1 hr) post injection): 0.06 ± 0.01 % dose/g | Biodistribution: Pancreas ([1]; 60 min (1 hr) post injection): 0.07 ± 0.02 % dose/g | Biodistribution: Skin ([1]; 60 min (1 hr) post injection): 0.11 ± 0.03 % dose/g | Biodistribution: Spleen ([1]; 60 min (1 hr) post injection): 0.07 ± 0.01 % dose/g | Biodistribution: Blood ([1]; 6 hr post injection): 0.016 ± 0.007 % dose/g | Biodistribution: Bone ([1]; 6 hr post injection): 12.7 ± 0.90 % dose/g | Biodistribution: Brain ([1]; 6 hr post injection): 0.003 ± 0.003 % dose/g | Biodistribution: Heart ([1]; 6 hr post injection): 0.024 ± 0.005 % dose/g | Biodistribution: Kidney ([1]; 6 hr post injection): 0.686 ± 0.191 % dose/g | Biodistribution: Liver ([1]; 6 hr post injection): 0.088 ± 0.021 % dose/g | Biodistribution: Lung ([1]; 6 hr post injection): 0.062 ± 0.006 % dose/g | Biodistribution: Muscle ([1]; 6 hr post injection): 0.031 ± 0.011 % dose/g | Biodistribution: Pancreas ([1]; 6 hr post injection): 0.021 ± 0.001 % dose/g | Biodistribution: Skin ([1]; 6 hr post injection): 0.052 ± 0.006 % dose/g | Biodistribution: Spleen ([1]; 6 hr post injection): 0.038 ± 0.005 % dose/g | bone to blood ratio ([1]; 6 hr post-injection): 909^a | bone to muscle ratio ([1]; 6 hr post-injection): 454^a | Biodistribution: Blood ([1]; 24 hr post injection): 0.003 ± 0.001 % dose/g | Biodistribution: Bone ([1]; 24 hr post injection): 11.6 ± 1.14 % dose/g | Biodistribution: Brain ([1]; 24 hr post injection): 0.014 ± 0.016 % dose/g | Biodistribution: Heart ([1]; 24 hr post injection): 0.014 ± 0.003 % dose/g | Biodistribution: Kidney ([1]; 24 hr post injection): 0.411 ± 0.125 % dose/g | Biodistribution: Liver ([1]; 24 hr post injection): 0.068 ± 0.013 % dose/g | Biodistribution: Lung ([1]; 24 hr post injection): 0.040 ± 0.003 % dose/g | Biodistribution: Muscle ([1]; 24 hr post injection): 0.021 ± 0.005 % dose/g | Biodistribution: Pancreas ([1]; 24 hr post injection): 0.013 ± 0.005 % dose/g | Biodistribution: Skin ([1]; 24 hr post injection): 0.042 ± 0.008 % dose/g | Biodistribution: Spleen ([1]; 24 hr post injection): 0.034 ± 0.005 % dose/g | bone to blood ratio ([1]; 24 hr post-injection): 4312^b^ | bone to muscle ratio ([1]; 24 hr post-injection): 572^b | Hydroxyapatite Binding (%) [2]: 90.9 ± 1.1%
SMILES: O=C([O-])CN1CCN(CC(=O)[O-])CCN(CC(=O)NCCNC(=O)CCc2ccc(O)c(CN(CCN(CC(=O)O)Cc3cc(CCC(=O)NC(P(=O)(O)O)P(=O)(O)O)ccc3O)CC(=O)O)c2)CCN(CC(=O)[O-])CC1.[177Lu+3] [[^177Lu]1h]
Biodistribution: Bone ([1]; 60 min (1 hr) post injection): 11.4±0.3 % dose/g and 11.4 ± 0.31 % dose/g | Biodistribution result in words (organ uptake, retention, excretion) [1]: excellent bone uptake, retention in bone and fast kidney excretion

SMILES: O=C([O-])CN(CCN(CC(=O)[O-])Cc1cc(CCC(=O)NC(P(=O)(O)O)P(=O)(O)O)ccc1[O-])Cc1cc(CCC(=O)NCCCNC(=O)CCc2ccc(O)c(CN(CCN(CC(=O)O)Cc3cc(CCC(=O)NC(P(=O)(O)O)P(=O)(O)O)ccc3O)CC(=O)O)c2)ccc1[O-].[68Ga+3] [[^68Ga]3]
bone to blood ratio ([1]; 2 min): 0.5 | bone to muscle ratio ([1]; 2 min): 2.6 | Biodistribution: Blood ([1]; 2 min post injection): 8.33 ± 0.23 % dose/g | Biodistribution: Bone ([1]; 2 min post injection): 4.17 ± 0.35 % dose/g | Biodistribution: Brain ([1]; 2 min post injection): 0.28 ± 0.03 % dose/g | Biodistribution: Heart ([1]; 2 min post injection): 3.45 ± 0.25 % dose/g | Biodistribution: Kidney ([1]; 2 min post injection): 12.2 ± 1.51 % dose/g | Biodistribution: Liver ([1]; 2 min post injection): 19.7 ± 1.05 % dose/g | Biodistribution: Lung ([1]; 2 min post injection): 71.6 ± 6.33 % dose/g | Biodistribution: Muscle ([1]; 2 min post injection): 1.62 ± 0.47 % dose/g | Biodistribution: Pancreas ([1]; 2 min post injection): 1.73 ± 0.08 % dose/g | Biodistribution: Skin ([1]; 2 min post injection): 1.24 ± 0.01 % dose/g | Biodistribution: Spleen ([1]; 2 min post injection): 12.8 ± 4.35 % dose/g | bone to blood ratio ([1]; 30 min): 4.8 | bone to muscle ratio ([1]; 30 min): 14 | Biodistribution: Blood ([1]; 30 min (0.5 hr) post injection): 1.92 ± 0.15 % dose/g | Biodistribution: Bone ([1]; 30 min (0.5 hr) post injection): 9.26 ± 1.45 % dose/g | Biodistribution: Brain ([1]; 30 min (0.5 hr) post injection): 0.06 ± 0.01 % dose/g | Biodistribution: Heart ([1]; 30 min (0.5 hr) post injection): 2.02 ± 0.97 % dose/g | Biodistribution: Kidney ([1]; 30 min (0.5 hr) post injection): 17.1 ± 0.70 % dose/g | Biodistribution: Liver ([1]; 30 min (0.5 hr) post injection): 9.86 ± 0.66 % dose/g | Biodistribution: Lung ([1]; 30 min (0.5 hr) post injection): 15.6 ± 1.39 % dose/g | Biodistribution: Muscle ([1]; 30 min (0.5 hr) post injection): 0.68 ± 0.09 % dose/g | Biodistribution: Pancreas ([1]; 30 min (0.5 hr) post injection): 1.07 ± 1.04 % dose/g | Biodistribution: Skin ([1]; 30 min (0.5 hr) post injection): 1.10 ± 0.18 % dose/g | Biodistribution: Spleen ([1]; 30 min (0.5 hr) post injection): 8.33 ± 2.22 % dose/g | bone to blood ratio ([1]; 60 min): 13 | bone to muscle ratio ([1]; 60 min): 16 | Biodistribution: Blood ([1]; 60 min (1 hr) post injection): 0.70 ± 0.13 % dose/g | Biodistribution: Bone ([1]; 60 min (1 hr) post injection): 9.26 ± 1.13 % dose/g | Biodistribution: Brain ([1]; 60 min (1 hr) post injection): 0.06 ± 0.01 % dose/g | Biodistribution: Heart ([1]; 60 min (1 hr) post injection): 1.16 ± 0.13 % dose/g | Biodistribution: Kidney ([1]; 60 min (1 hr) post injection): 7.99 ± 1.08 % dose/g | Biodistribution: Liver ([1]; 60 min (1 hr) post injection): 23.5 ± 3.13 % dose/g | Biodistribution: Lung ([1]; 60 min (1 hr) post injection): 41.3 ± 5.15 % dose/g | Biodistribution: Muscle ([1]; 60 min (1 hr) post injection): 0.57 ± 0.14 % dose/g | Biodistribution: Pancreas ([1]; 60 min (1 hr) post injection): 0.26 ± 0.02 % dose/g | Biodistribution: Skin ([1]; 60 min (1 hr) post injection): 0.41 ± 0.02 % dose/g | Biodistribution: Spleen ([1]; 60 min (1 hr) post injection): 10.3 ± 2.65 % dose/g | bone to blood ratio ([1]; 120 min): 29 | bone to muscle ratio ([1]; 120 min): 39 | Biodistribution: Blood ([1]; 120 min post injection): 0.37 ± 0.07 % dose/g | Biodistribution: Bone ([1]; 120 min post injection): 10.6 ± 0.85 % dose/g | Biodistribution: Brain ([1]; 120 min post injection): 0.05 ± 0.01 % dose/g | Biodistribution: Heart ([1]; 120 min post injection): 1.05 ± 0.11 % dose/g | Biodistribution: Kidney ([1]; 120 min post injection): 8.99 ± 0.20 % dose/g | Biodistribution: Liver ([1]; 120 min post injection): 25.4 ± 2.80 % dose/g | Biodistribution: Lung ([1]; 120 min post injection): 34.8 ± 1.90 % dose/g | Biodistribution: Muscle ([1]; 120 min post injection): 0.28 ± 0.04 % dose/g | Biodistribution: Pancreas ([1]; 120 min post injection): 0.25 ± 0.03 % dose/g | Biodistribution: Skin ([1]; 120 min post injection): 0.33 ± 0.06 % dose/g | Biodistribution: Spleen ([1]; 120 min post injection): 15.7 ± 1.59 % dose/g | Biodistribution result in words (organ uptake, retention, excretion) [1]: high liver uptake and less bone localization | Hydroxyapatite Binding (%) [2]: 95.8 ± 0.1%
